Measurements from ChEMBL document CHEMBL1201862, “PubChem BioAssay data set” (2004).
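How tested: cells in 96-well plates exposed to compound for 48 hours at five concentrations. Abbreviation: GI50, concentration required for 50% inhibition of growth.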 Calls of active or inactive are those of the source. Cut-off read from the data, not from the text of the source: active = GI50 up to about 1.1 µM and inactive = higher.

What was measured:
Assay in all cases: NCI tumour cell line growth inhibition, 48 h
A498 = test system: A498
SR = test system: SR
HL-60 = test system: HL-60
786-0 = test system: 786-0
SK-MEL-28 = test system: SK-MEL-28
HCC 2998 = test system: HCC 2998
HOP-92 = test system: HOP-92
M14 = test system: M14
SF-539 = test system: SF-539
EKVX = test system: EKVX
OVCAR-4 = test system: OVCAR-4
UACC-62 = test system: UACC-62
DLD-1 = test system: DLD-1
COLO 205 = test system: COLO 205
ACHN = test system: ACHN
SN12C = test system: SN12C
HCT-15 = test system: HCT-15
SK-MEL-5 = test system: SK-MEL-5

| Structure (SMILES) | GI50 (A498) | GI50 (SR) | GI50 (HL-60) | GI50 (786-0) | GI50 (SK-MEL-28) | GI50 (HCC 2998) | GI50 (HOP-92) | GI50 (M14) | GI50 (SF-539) | GI50 (EKVX) | GI50 (OVCAR-4) | GI50 (UACC-62) | GI50 (DLD-1) | GI50 (COLO 205) | GI50 (ACHN) | GI50 (SN12C) | GI50 (HCT-15) [µM] | GI50 (SK-MEL-5) |
| --- | --- | --- | --- | --- | --- | --- | --- | --- | --- | --- | --- | --- | --- | --- | --- | --- | --- | --- |
| O=C(O)CC[C@H](NC(=O)c1ccc(-n2nc3ccc(=O)cc-3[nH]c2=O)cc1)C(=O)O | > 100 µM (inactive) | > 100 µM (inactive) | > 100 µM (inactive) | > 100 µM (inactive) | > 100 µM (inactive) | > 100 µM (inactive) | > 100 µM (inactive) | > 100 µM (inactive) | > 100 µM (inactive) | > 100 µM (inactive) | > 100 µM (inactive) | > 100 µM (inactive) | > 100 µM (inactive) | > 100 µM (inactive) | > 100 µM (inactive) | > 100 µM (inactive) | > 100 | > 100 µM (inactive) |
| COc1cccc(OC)c1/C=N\N1C(=O)c2ccccc2C1=O | > 100 µM (inactive) | 32.8 µM (inactive) | 33.9 µM (inactive) | 31.3 µM (inactive) | 77.6 µM (inactive) | 29.5 µM (inactive) | 47.2 µM (inactive) | 19.7 µM (inactive) | 24.3 µM (inactive) | > 100 µM (inactive) | 49 µM (inactive) | 34.6 µM (inactive) | 49 µM (inactive) | – | 47.4 µM (inactive) | 57.1 µM (inactive) | 32.1 | 52.1 µM (inactive) |
| OC1(C23CC4CC(CC(C4)C2)C3)CSCC1(O)C12CC3CC(CC(C3)C1)C2 (centres undefined) | – | > 100 µM (inactive) | > 10 µM (inactive) | > 100 µM (inactive) | > 100 µM (inactive) | > 100 µM (inactive) | > 100 µM (inactive) | > 100 µM (inactive) | > 100 µM (inactive) | > 100 µM (inactive) | > 100 µM (inactive) | 70.6 µM (inactive) | > 100 µM (inactive) | > 100 µM (inactive) | – | > 100 µM (inactive) | – | > 100 µM (inactive) |
| O=C1NCCS(=O)(=O)N[C@@H](CC2=CC=CCC2)C(=O)N2CCCC12 (some centres undefined) | > 100 µM (inactive) | > 100 µM (inactive) | > 100 µM (inactive) | > 100 µM (inactive) | > 100 µM (inactive) | > 100 µM (inactive) | > 100 µM (inactive) | > 100 µM (inactive) | > 100 µM (inactive) | > 100 µM (inactive) | > 100 µM (inactive) | > 100 µM (inactive) | > 100 µM (inactive) | > 100 µM (inactive) | > 100 µM (inactive) | > 100 µM (inactive) | > 100 | > 100 µM (inactive) |
| c1ccc2[nH]c(CNc3ccc(C4C[Se]N=N4)cc3)nc2c1 (centres undefined) | > 100 µM (inactive) | 9.86 µM (inactive) | 28.2 µM (inactive) | > 100 µM (inactive) | 78.9 µM (inactive) | > 100 µM (inactive) | > 100 µM (inactive) | 67.3 µM (inactive) | > 100 µM (inactive) | – | 27.5 µM (inactive) | 24.7 µM (inactive) | > 100 µM (inactive) | 48.6 µM (inactive) | > 100 µM (inactive) | 86.9 µM (inactive) | > 100 | 15.1 µM (inactive) |
| CC#CC1C(OC(=O)c2ccccc2)CCCC1(CI)N=[N+]=[N-] (centres undefined) | > 100 µM (inactive) | 17.5 µM (inactive) | 15.1 µM (inactive) | > 100 µM (inactive) | – | 90.2 µM (inactive) | 92.7 µM (inactive) | 59.8 µM (inactive) | > 100 µM (inactive) | 55.1 µM (inactive) | 60.1 µM (inactive) | > 100 µM (inactive) | 52.1 µM (inactive) | > 100 µM (inactive) | > 100 µM (inactive) | > 100 µM (inactive) | 45.2 | 19.5 µM (inactive) |
| COc1ccc(/C(=N/NC(N)=O)C(c2ccc(OC)cc2)C2C(=O)Oc3ccccc32)cc1 (centres undefined) | – | > 100 µM (inactive) | > 100 µM (inactive) | > 100 µM (inactive) | > 100 µM (inactive) | > 100 µM (inactive) | 75 µM (inactive) | > 100 µM (inactive) | > 100 µM (inactive) | – | > 100 µM (inactive) | > 100 µM (inactive) | > 100 µM (inactive) | > 100 µM (inactive) | – | > 100 µM (inactive) | > 100 | > 100 µM (inactive) |
| CCCCOP1(=O)C=C(C)C(=C(Cl)Cl)C(C)=C1 (centres undefined) | – | 3.2 µM (inactive) | 2.4 µM (inactive) | 12.5 µM (inactive) | 8.17 µM (inactive) | 22.3 µM (inactive) | 1.5 µM (inactive) | 11.6 µM (inactive) | 23.6 µM (inactive) | 47.4 µM (inactive) | 23.8 µM (inactive) | 7.01 µM (inactive) | 16.2 µM (inactive) | 5.25 µM (inactive) | 6.43 µM (inactive) | 7.31 µM (inactive) | 11.5 | 3.84 µM (inactive) |
